In patent publication US20170334899A1, “AMINO-SUBSTITUTED ISOTHIAZOLES” (Bayer Pharma Aktiengesellschaft, priority 2014, published 2017):
Several values for one entry are separate records, joined by “and”; a condition that tells them apart may be missing. Identical values can stand only once.

Biological target: T1, human kinase Mps-1 (Homo sapiens, UniProt P33981)
T1 construct: N-terminally GST-tagged human full length recombinant Mps-1 kinase; GST (N); purchased Invitrogen, Karslruhe, Germany PV4071
T1 sequence (P33981 1-857): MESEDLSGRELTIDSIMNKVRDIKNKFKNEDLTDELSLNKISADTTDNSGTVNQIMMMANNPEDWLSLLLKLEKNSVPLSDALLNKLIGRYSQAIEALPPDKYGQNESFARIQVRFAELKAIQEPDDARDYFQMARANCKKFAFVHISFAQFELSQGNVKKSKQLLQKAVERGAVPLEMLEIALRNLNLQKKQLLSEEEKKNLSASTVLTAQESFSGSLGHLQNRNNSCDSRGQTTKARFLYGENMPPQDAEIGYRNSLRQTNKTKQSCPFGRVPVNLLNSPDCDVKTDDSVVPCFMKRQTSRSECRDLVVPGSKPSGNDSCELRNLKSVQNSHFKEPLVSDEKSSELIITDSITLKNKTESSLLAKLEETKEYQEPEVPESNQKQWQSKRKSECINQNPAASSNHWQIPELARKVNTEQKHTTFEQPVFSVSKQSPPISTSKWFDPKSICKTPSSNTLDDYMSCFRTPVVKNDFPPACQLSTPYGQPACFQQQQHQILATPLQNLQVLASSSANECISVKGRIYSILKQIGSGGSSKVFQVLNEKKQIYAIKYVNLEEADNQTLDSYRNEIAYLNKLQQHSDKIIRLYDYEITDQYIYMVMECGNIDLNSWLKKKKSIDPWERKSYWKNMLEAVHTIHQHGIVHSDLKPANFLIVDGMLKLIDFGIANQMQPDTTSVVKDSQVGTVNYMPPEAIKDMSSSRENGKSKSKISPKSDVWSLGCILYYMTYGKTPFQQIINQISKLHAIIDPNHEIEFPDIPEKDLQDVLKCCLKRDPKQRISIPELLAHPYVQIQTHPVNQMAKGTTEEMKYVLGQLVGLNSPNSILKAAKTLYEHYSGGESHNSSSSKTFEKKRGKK
Assay: Mps-1 kinase assay (TR-FRET)
Assay type: biochemical
Conditions: Mps-1 TR-FRET kinase assay; avg; read-out: Mps1 avg (IC50 [mol/l])
Summary of the method: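 GST-tagged full-length recombinant human Mps-1 (~0.5 nM) pre-incubated 15 min with compound, then reacted 60 min at 22 °C with 10 μM ATP and 1 μM biotinylated peptide in Hepes pH 7.7 buffer. EDTA-stopped; TR-FRET (Eu anti-phospho-Ser/Thr to SA-XLent) 665/620 nm ratio normalised to no-inhibitor and no-enzyme controls.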

IC50	Structure (SMILES)
> 20 µM	Cc1nsc(Nc2cncc(C(F)(F)F)n2)c1C(=O)Nc1ccc(F)c(OC2CCN(CCF)CC2)c1 [Example 269, N-(4-fluoro-3-{[1-(2-fluoroethyl)piperidin-4-yl]oxy}phenyl)-3-methyl-5-{[6-(trifluoromethyl)pyrazin-2-yl]amino}-1,2-thiazole-4-carboxamide]
> 20 µM	Cc1nsc(Nc2cnc(C(F)(F)F)cn2)c1C(=O)Nc1ccc(C(=O)NC2CN(CC(F)(F)F)C2)cc1 [Example 270, 3-methyl-N-(4-{[1-(2,2,2-trifluoroethyl)azetidin-3-yl]carbamoyl}phenyl)-5-{[5-(trifluoromethyl)pyrazin-2-yl]amino}-1,2-thiazole-4-carboxamide]
> 20 µM	Cc1nsc(Nc2cnc(C(F)(F)F)cn2)c1C(=O)Nc1ccc(C(=O)NC2CN(CC(F)F)C2)cc1 [Example 271, N-(4-{[1-(2,2-difluoroethyl)azetidin-3-yl]carbamoyl}phenyl)-3-methyl-5-{[5-(trifluoromethyl)pyrazin-2-yl]amino}-1,2-thiazole-4-carboxamide]
> 20 µM	Cc1nsc(Nc2cncc(C(F)(F)F)n2)c1C(=O)Nc1ccc(C(=O)N2CCN(CC(F)(F)F)CC2)cc1 [Example 272, 3-methyl-N-(4-{[4-(2,2,2-trifluoroethyl)piperazin-1-yl]carbonyl}phenyl)-5-{[6-(trifluoromethyl)pyrazin-2-yl]amino}-1,2-thiazole-4-carboxamide]
> 20 µM	Cc1nsc(Nc2cncc(C(F)(F)F)n2)c1C(=O)Nc1ccc(C(=O)N2CCN(CC(F)F)CC2)cc1 [Example 273, N-(4-{[4-(2,2-difluoroethyl)piperazin-1-yl]carbonyl}phenyl)-3-methyl-5-{[6-(trifluoromethyl)pyrazin-2-yl]amino}-1,2-thiazole-4-carboxamide]
> 20 µM	Cc1nsc(Nc2cncc(C(F)(F)F)n2)c1C(=O)Nc1ccc(C(=O)N2CCN(CCF)CC2)cc1 [Example 274, N-(4-{[4-(2-fluoroethyl)piperazin-1-yl]carbonyl}phenyl)-3-methyl-5-{[6-(trifluoromethyl)pyrazin-2-yl]amino}-1,2-thiazole-4-carboxamide]
> 20 µM	CCN1CCN(C(=O)c2ccc(NC(=O)c3c(C)nsc3Nc3cncc(C(F)(F)F)n3)cc2)CC1 [Example 275, N-{4-[(4-ethylpiperazin-1-yl)carbonyl]phenyl}-3-methyl-5-{[6-(trifluoromethyl)pyrazin-2-yl]amino}-1,2-thiazole-4-carboxamide]
> 20 µM	Cc1nsc(Nc2cncc(C(F)(F)F)n2)c1C(=O)Nc1ccc(OCCO)nc1 [Example 276, N-[6-(2-hydroxyethoxy)pyridin-3-yl]-3-methyl-5-{[6-(trifluoromethyl)pyrazin-2-yl]amino}-1,2-thiazole-4-carboxamide]
> 20 µM	Cc1nsc(Nc2cnc(C(F)(F)F)cn2)c1C(=O)Nc1ccc(OCCO)nc1 [Example 277, N-[6-(2-hydroxyethoxy)pyridin-3-yl]-3-methyl-5-{[5-(trifluoromethyl)pyrazin-2-yl]amino}-1,2-thiazole-4-carboxamide]
> 20 µM	Cc1nsc(Nc2cncc(C(F)(F)F)n2)c1C(=O)Nc1ccc(OCCCO)nc1 [Example 278, N-[6-(3-hydroxypropoxy)pyridin-3-yl]-3-methyl-5-{[6-(trifluoromethyl)pyrazin-2-yl]amino}-1,2-thiazole-4-carboxamide]
> 20 µM	Cc1nsc(Nc2cnc(C(F)(F)F)cn2)c1C(=O)Nc1ccc(OCCCO)nc1 [Example 279, N-[6-(3-hydroxypropoxy)pyridin-3-yl]-3-methyl-5-{[5-(trifluoromethyl)pyrazin-2-yl]amino}-1,2-thiazole-4-carboxamide]
> 20 µM and 11 µM	Cc1nsc(Nc2cncc(C(F)(F)F)n2)c1C(=O)Nc1ccc(C(=O)NC2CN(CC(F)(F)F)C2)cc1 [Example 280, 3-methyl-N-(4-{[1-(2,2,2-trifluoroethyl)azetidin-3-yl]carbamoyl}phenyl)-5-{[6-(trifluoromethyl)pyrazin-2-yl]amino}-1,2-thiazole-4-carboxamide]
> 20 µM	Cc1nsc(Nc2cnc3ccccc3n2)c1C(=O)Nc1cccc(NS(=O)(=O)C2CCN(CC(F)(F)F)CC2)c1 [Example 281, 3-methyl-5-(quinoxalin-2-ylamino)-N-[3-({[1-(2,2,2-trifluoroethyl)piperidin-4-yl]sulfonyl}amino)phenyl]-1,2-thiazole-4-carboxamide]
> 20 µM	Cc1nsc(Nc2cnc3ccccc3n2)c1C(=O)Nc1cccc(NS(=O)(=O)C2CCN(CC(F)F)CC2)c1 [Example 282, N-[3-({[1-(2,2-difluoroethyl)piperidin-4-yl]sulfonyl}amino)phenyl]-3-methyl-5-(quinoxalin-2-ylamino)-1,2-thiazole-4-carboxamide]
> 20 µM	Cc1nsc(Nc2cnc3ccccc3n2)c1C(=O)Nc1cccc(NS(=O)(=O)C2CCN(CCC(F)(F)F)CC2)c1 [Example 283, 3-methyl-5-(quinoxalin-2-ylamino)-N-[3-({[1-(3,3,3-trifluoropropyl)piperidin-4-yl]sulfonyl}amino)phenyl]-1,2-thiazole-4-carboxamide]
> 20 µM	Cc1nsc(Nc2cnc(C(F)(F)F)cn2)c1C(=O)Nc1cccc(NC(=O)OC(C)(C)C)c1 [Example 284, 3-tert-butyl (3-{[(3-methyl-5-{[5-(trifluoromethyl)pyrazin-2-yl]amino}-1,2-thiazol-4-yl)carbonyl]amino}phenyl)carbamate]
> 20 µM	Cc1nsc(Nc2cnc3ccccc3n2)c1C(=O)Nc1cccc(NS(=O)(=O)C2CN(CC(F)(F)F)C2)c1 [Example 285, 3-methyl-5-(quinoxalin-2-ylamino)-N-[3-({[1-(2,2,2-trifluoroethyl)azetidin-3-yl]sulfonyl}amino)phenyl]-1,2-thiazole-4-carboxamide]
14 µM	Cc1nsc(Nc2cnc3ccccc3n2)c1C(=O)Nc1cccc(NS(=O)(=O)C2CN(CC(F)F)C2)c1 [Example 286, N-[3-({[1-(2,2-difluoroethyl)azetidin-3-yl]sulfonyl}amino)phenyl]-3-methyl-5-(quinoxalin-2-ylamino)-1,2-thiazole-4-carboxamide]
> 20 µM	Cc1nsc(Nc2cnc3ccccc3n2)c1C(=O)Nc1cccc(NS(=O)(=O)C2CN(CCF)C2)c1 [Example 287, N-[3-({[1-(2-fluoroethyl)azetidin-3-yl]sulfonyl}amino)phenyl]-3-methyl-5-(quinoxalin-2-ylamino)-1,2-thiazole-4-carboxamide]
> 20 µM	Cc1nsc(Nc2cnc3ccccc3n2)c1C(=O)Nc1cccc(NS(=O)(=O)C2CN(CCC(F)(F)F)C2)c1 [Example 288, 3-methyl-5-(quinoxalin-2-ylamino)-N-[3-({[1-(3,3,3-trifluoropropyl)azetidin-3-yl]sulfonyl}amino)phenyl]-1,2-thiazole-4-carboxamide]
> 20 µM	Cc1nsc(Nc2cnc3ccccc3n2)c1C(=O)Nc1cccc(NS(=O)(=O)C2CCN(CC(F)(F)F)C2)c1 (stereo not shown) [Example 289, 3-methyl-5-(quinoxalin-2-ylamino)-N-[3-({[1-(2,2,2-trifluoroethyl)pyrrolidin-3-yl]sulfonyl}amino)phenyl]-1,2-thiazole-4-carboxamide]
> 20 µM	Cc1nsc(Nc2cnc3ccccc3n2)c1C(=O)Nc1cccc(NS(=O)(=O)C2CCN(C(=O)OC(C)(C)C)C2)c1 (stereo not shown) [Example 290, tert-butyl 3-{[3-({[3-methyl-5-(quinoxalin-2-ylamino)-1,2-thiazol-4-yl]carbonyl}amino)phenyl]sulfamoyl} pyrrolidine-1-carboxylate]
> 20 µM	Cc1nsc(Nc2cnc3ccccc3n2)c1C(=O)Nc1cccc(NS(=O)(=O)C2CCCN(C(=O)OCc3ccccc3)C2)c1 (stereo not shown) [Example 291, benzyl 3-{[3-({[3-methyl-5-(quinoxalin-2-ylamino)-1,2-thiazol-4-yl]carbonyl}amino)phenyl]sulfamoyl} piperidine-1-carboxylate]
> 20 µM	Cc1nsc(Nc2cnc(C(F)(F)F)cn2)c1C(=O)Nc1ccc(OCCCNCC(F)(F)F)nc1 [Example 292, 3-methyl-N-(6-{3-[(2,2,2-trifluoroethyl)amino]propoxy}pyridin-3-yl)-5-{[5-(trifluoromethyl)pyrazin-2-yl]amino}-1,2-thiazole-4-carboxamide]
> 20 µM	Cc1nsc(Nc2cnc(C(F)(F)F)cn2)c1C(=O)Nc1ccc(OCCCNCC(F)F)nc1 [Example 293, N-(6-{3-[(2,2-difluoroethyl)amino]propoxy}pyridin-3-yl)-3-methyl-5-{[5-(trifluoromethyl)pyrazin-2-yl]amino}-1,2-thiazole-4-carboxamide]
